In general, IC50 refers to the concentration that gives 50% inhibition. By ED50 is commonly meant the dose at which the effect has come halfway, by size or by number of responders. A high value points to weaker potency.

Each structure is given as a SMILES string.

Among the data in ChEMBL document CHEMBL1132455, “Retention of immunosuppressant activity in an ascomycin analogue lacking a hydrogen-bonding interaction with FKBP12” (J Med Chem, 1999) are IC50 and ED50 values, retold here.

Assay [1] deals with Peptidyl-prolyl cis-trans isomerase FKBP1A (Homo sapiens, UniProt P62942). Description: The compound was tested for binding affinity against human FK506 binding protein 12.
The species named for assay [2] is Homo sapiens. The assay is described as follows: Immunosuppressive activity examined in an in vitro model of allogenic T-lymphocyte activation(by MLR assay). The format is functional.
Another assay relates to Rattus norvegicus. The assay is described as follows: The compound was tested in vivo for lympho-proliferation,against popliteal lymph node(inbred male rats) after i.p. administration. The class given is functional. The settings on record: ip.
The species entered for assay [3] is Homo sapiens. The assay is described as follows: Immunosuppressive activity examined in an in vitro model of allogenic T-lymphocyte activation (by MLR assay). The format is functional.

Peptidyl-prolyl cis-trans isomerase FKBP1A, sequence (P62942 whole entry): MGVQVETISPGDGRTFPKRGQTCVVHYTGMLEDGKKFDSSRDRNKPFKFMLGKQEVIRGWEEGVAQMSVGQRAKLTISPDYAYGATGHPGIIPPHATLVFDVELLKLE

As to `CC[C@@H]1/C=C(\C)C[C@H](C)C[C@H](OC)[C@H]2O[C@@](O)(C(=O)C(=O)N3CCCC[C@H]3C(=O)O[C@H](/C(C)=C/[C@@H]3CC[C@@H](O)[C@H](OC)C3)[C@H](C)/C=C/C1=O)[C@H](C)C[C@@H]2OC`, the IC50 in assay [1] came out at 529 nM; in the assay listed under Homo sapiens [2], 22 nM.

For `CC[C@@H]1/C=C(\C)C[C@H](C)C[C@H](OC)[C@H]2O[C@@](O)(C(=O)C(=O)N3CCCC[C@H]3C(=O)O[C@H](/C(C)=C/[C@@H]3CC[C@@H](O)[C@H](OC)C3)[C@H](C)CCC1=O)[C@H](C)C[C@@H]2OC`, the figures for the IC50 (in assay [1]; in the assay filed under Homo sapiens [3]) were 0.77 nM and 0.15 nM, respectively. Moreover, the ED50 in the assay with Rattus norvegicus amounted to 0.65 mg/kg/day.

As for `CC[C@@H]1/C=C(\C)C[C@H](C)C[C@H](OC)[C@H]2O[C@@](O)(C(=O)C(=O)N3CCCC[C@H]3C(=O)O[C@H](/C(C)=C/[C@@H]3CC[C@@H](O)[C@H](OC)C3)[C@H](C)[C@@H](O)CC1=O)[C@H](C)C[C@@H]2OC` [ASCOMYCIN], in the assay on Rattus norvegicus, it took a dose of 0.32 mg/kg/day to reach the 50% effect level (ED50). This compound also yielded an IC50 in the assay filed under Homo sapiens [3] of 0.26 nM.

In turn, `C=CC[C@@H]1/C=C(\C)C[C@H](C)C[C@H](OC)[C@H]2O[C@@](O)(C(=O)C(=O)N3CCCC[C@H]3C(=O)O[C@H](/C(C)=C/[C@@H]3CC[C@@H](O)[C@H](OC)C3)[C@H](C)[C@@H](O)CC1=O)[C@H](C)C[C@@H]2OC` [TACROLIMUS ANHYDROUS] yielded an ED50 in the assay on Rattus norvegicus of 0.15 mg/kg/day. This compound also showed an IC50 in the assay filed under Homo sapiens [3] of 0.23 nM.
